Source: patent US9695155B2, “Herbicidal substituted pyrimidinyloxy benzene compounds” (E. I. DU PONT DE NEMOURS AND COMPANY, priority 2013, dated 2017)

Assays:
[1] = test system: yellow nutsedge; assay: Test C postemergence; assay type: in vivo, Cyperus esculentus; details: for Plant response rating, Nutsedge, Yellow: Postemergence
Method in brief: (§1)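 Seeds were sown in loam–sand blend and sprayed preemergence, while plants at 1- to 4-leaf stage (2–18 cm) in peat-based medium received postemergence sprays; test chemicals were formulated in a non-phytotoxic solvent with surfactant. After 13–15 days in a greenhouse, injury was rated visually against controls, 0 (no effect) to 100 (complete control).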

[2] = test system: chickweed; assay: Test C postemergence; assay type: in vivo, Stellaria media; details: for Plant response rating, Chickweed: Postemergence
Method in brief: as §1

[3] = test system: wild oat; assay: Test C postemergence; assay type: in vivo, Avena fatua; details: for Plant response rating, Oat, Wild: Postemergence
Method in brief: as §1

[4] = test system: barnyardgrass; assay: Test A postemergence; assay type: in vivo, Echinochloa crus-galli
Method in brief: (§2)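 Scoring: eye-based comparison with untreated controls, 0 for no effect through 100 for complete control, at about day 10. Treatments: directed soil spray preemergence; foliar spray postemergence on 2–10 cm plants at the one- to two-leaf stage. Medium: loam soil with sand.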

[5] = test system: sedge, umbrella; assay: Test B flooded paddy test; assay type: in vivo, Cyperus difformis; details: Flood, 250 g ai/ha; 0 to 100 scale where 0 is no effect and 100 is complete control
Method in brief: (§3)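 Plants at 2-leaf stage; pots flooded to 3 cm above soil and compound applied directly into paddy water, depth held throughout. After 13 to 15 days in greenhouse, visual rating versus controls on 0 (no effect) to 100 (complete control) scale.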

[6] = test system: giant foxtail; assay: Test C postemergence; assay type: in vivo, Setaria faberii; details: for Plant response rating, Foxtail, Giant: Postemergence
Method in brief: as §1

[7] = test system: pigweed; assay: Test A postemergence; assay type: in vivo, Amaranthus retroflexus
Method in brief: as §2

[8] = test system: rice; assay: Test B flooded paddy test; assay type: in vivo, Oryza sativa; details: Flood, 250 g ai/ha; 0 to 100 scale where 0 is no effect and 100 is complete control
Method in brief: as §3

[9] = test system: large (Lg) crabgrass; assay: Test A preemergence; assay type: in vivo, Digitaria sanguinalis; details: for Plant response rating, Crabgrass, Large: 125 g ai/ha; for Crabgrass, Large plant response rating: 500 g ai/ha
Method in brief: as §2

[10] = test system: large (Lg) crabgrass; assay: Test C postemergence; assay type: in vivo, Digitaria sanguinalis; details: for Plant response rating, Crabgrass, Large: Postemergence
Method in brief: as §1

[11] = test system: barnyardgrass; assay: Test A preemergence; assay type: in vivo, Echinochloa crus-galli; details: for Plant response rating, Barnyardgrass: 125 g ai/ha; for Barnyardgrass plant response rating: 500 g ai/ha
Method in brief: as §2

[12] = test system: morningglory; assay: Test C postemergence; assay type: in vivo, Ipomoea coccinea; details: for Plant response rating, Morningglory: Postemergence
Method in brief: as §1

[13] = test system: barnyardgrass; assay: Test B flooded paddy test; assay type: in vivo, Echinochloa crus-galli; details: Flood, 250 g ai/ha; 0 to 100 scale where 0 is no effect and 100 is complete control
Method in brief: as §3

[14] = test system: lambsquarters; assay: Test C postemergence; assay type: in vivo, Chenopodium album; details: for Plant response rating, Lambsquarters: Postemergence
Method in brief: as §1

[15] = test system: barnyardgrass; assay: Test C postemergence; assay type: in vivo, Echinochloa crus-galli; details: for Plant response rating, Barnyardgrass: Postemergence
Method in brief: as §1

[16] = 31 g ai/ha, scale 0 to 100 (0 no effect, 100 complete control), 13 to 15 days
[17] = 62 g ai/ha, scale 0 to 100 (0 no effect, 100 complete control)
[18] = 125 g ai/ha, 0 to 100 scale where 0 is no effect and 100 is complete control
[19] = 500 g ai/ha, 0 to 100 scale, 0 no effect, 100 complete control
[20] = 0 to 100 scale where 0 is no effect and 100 is complete control
[21] = 0 to 100 scale, 0 no effect, 100 complete control, approx. 10 days
[22] = 8 g ai/ha, postemergence, 0 is no effect, 100 is complete control
[23] = 16 g ai/ha, postemergence, 0 is no effect, 100 is complete control
[24] = 31 g ai/ha, postemergence, visual rating, scale 0 to 100 (0 no effect, 100 complete control), 13 to 15 days
[25] = 500 g ai/ha, 0 to 100 scale where 0 is no effect and 100 is complete control

N#Cc1cccc(Oc2ncc(Br)cn2)c1-n1cc(Br)cn1 [Compound 57]
50: Plant response rating, Chickweed [2, 16] | Plant response rating, Chickweed [2, 17]
45: Plant response rating, Morningglory [12, 16]
30: Plant response rating (0 to 100), Oat, Wild ([3]; 125 g ai/ha, postemergence) | Plant response rating (0 to 100), Foxtail, Giant ([6]; 250 g ai/ha, postemergence) | Plant response rating (0 to 100), Crabgrass, Large ([10]; 250 g ai/ha, postemergence)
70: Plant response rating (0 to 100), Lambsquarters ([14]; 125 g ai/ha, postemergence) | Plant response rating, Lambsquarters [14, 16] | Plant response rating, Lambsquarters [14, 17]
15: Plant response rating (0 to 100), Nutsedge, Yellow ([1]; 250 g ai/ha, postemergence) | Plant response rating, Oat, Wild [3, 17] | Plant response rating (0 to 100), Foxtail, Giant ([6]; 125 g ai/ha, postemergence) | Plant response rating (0 to 100), Barnyardgrass ([15]; 250 g ai/ha, postemergence)
5: Plant response rating (0 to 100), Nutsedge, Yellow ([1]; 125 g ai/ha, postemergence) | Plant response rating, Nutsedge, Yellow [1, 16] | Plant response rating, Nutsedge, Yellow [1, 17] | Plant response rating, Crabgrass, Large [10, 16] | Plant response rating, Crabgrass, Large [10, 17] | Plant response rating, Barnyardgrass [15, 16]
80: Plant response rating (0 to 100), Chickweed ([2]; 125 g ai/ha, postemergence) | Plant response rating (0 to 100), Chickweed ([2]; 250 g ai/ha, postemergence) | Plant response rating, Sedge, Umbrella [5] | Plant response rating, Morningglory [12, 17]
90: Plant response rating, Barnyardgrass [4, 18] | Plant response rating, Crabgrass, Large [9, 20]
10: Plant response rating, Oat, Wild [3, 16] | Plant response rating, Foxtail, Giant [6, 16] | Plant response rating, Foxtail, Giant [6, 17] | Plant response rating (0 to 100), Crabgrass, Large ([10]; 125 g ai/ha, postemergence) | Plant response rating (0 to 100), Barnyardgrass ([15]; 125 g ai/ha, postemergence) | Plant response rating, Barnyardgrass [15, 17]
100: Plant response rating, Barnyardgrass [4, 19] | Plant response rating, Pigweed [7, 18] | Plant response rating, Pigweed [7, 19] | Crabgrass, Large plant response rating [9, 21] | Barnyardgrass plant response rating [11, 21]
0: Plant response rating, Rice [8] | Plant response rating, Barnyardgrass [13]
95: Plant response rating (0 to 100), Morningglory ([12]; 250 g ai/ha, postemergence)
85: Plant response rating (0 to 100), Morningglory ([12]; 125 g ai/ha, postemergence) | Plant response rating (0 to 100), Lambsquarters ([14]; 250 g ai/ha, postemergence)
60: Plant response rating, Barnyardgrass [11, 20]
35: Plant response rating (0 to 100), Oat, Wild ([3]; 250 g ai/ha, postemergence)

O=Cc1cccc(Oc2ncc(I)cn2)c1-n1cc(Br)cn1 [Compound 172]
50: Chickweed plant response rating [2, 24]
5: Nutsedge, Yellow plant response rating [1, 24] | Plant response rating, Nutsedge, Yellow [1, 17] | Plant response rating, Foxtail, Giant [6, 17] | Plant response rating (0 to 100), Barnyardgrass [15, 23] | Barnyardgrass plant response rating [15, 24] | Plant response rating, Barnyardgrass [15, 17]
0: Plant response rating (0 to 100), Nutsedge, Yellow [1, 22] | Plant response rating (0 to 100), Nutsedge, Yellow [1, 23] | Plant response rating (0 to 100), Chickweed [2, 22] | Plant response rating (0 to 100), Chickweed [2, 23] | Plant response rating (0 to 100), Oat, Wild [3, 22] | Plant response rating (0 to 100), Oat, Wild [3, 23] | Oat, Wild plant response rating [3, 24] | Plant response rating, Oat, Wild [3, 17] | Plant response rating, Sedge, Umbrella [5] | Plant response rating (0 to 100), Foxtail, Giant [6, 22] | Foxtail, Giant plant response rating [6, 24] | Plant response rating, Rice [8] | Plant response rating, Crabgrass, Large [9, 20] | Plant response rating (0 to 100), Crabgrass, Large [10, 22] | Plant response rating (0 to 100), Crabgrass, Large [10, 23] | Crabgrass, Large plant response rating [10, 24] | Plant response rating, Crabgrass, Large [10, 17] | Plant response rating, Barnyardgrass [11, 20] | Barnyardgrass plant response rating [11, 20] | Plant response rating (0 to 100), Morningglory [12, 22] | Plant response rating (0 to 100), Morningglory [12, 23] | Plant response rating, Barnyardgrass [13] | Plant response rating (0 to 100), Lambsquarters [14, 22] | Plant response rating (0 to 100), Lambsquarters [14, 23] | Lambsquarters plant response rating [14, 24] | Plant response rating, Lambsquarters [14, 17] | Plant response rating (0 to 100), Barnyardgrass [15, 22]
70: Plant response rating, Chickweed [2, 17]
100: Pigweed plant response rating [7, 18] | Plant response rating, Pigweed [7, 25]
20: Morningglory plant response rating [12, 24]
30: Barnyardgrass plant response rating [4, 18] | Crabgrass, Large plant response rating [9, 20]
60: Plant response rating, Barnyardgrass [4, 25]
10: Plant response rating (0 to 100), Foxtail, Giant [6, 23] | Plant response rating, Morningglory [12, 17]
